For orientation: IC50 means the point on the concentration scale where inhibition reaches its midpoint.

The target in one assay is human C5aR (Homo sapiens (Human), UniProt P21730). Nature of the assay: FLIPR assay: inhibition of C5a-mediated calcium mobilization. The conditions noted are these: stable cell line over expressing human C5aR & Gα15, human C5a at EC50 (0.1-0.25 nM). The format is cell-based. In a few lines: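 Compounds were added for 30 minutes at room temperature (1% DMSO) ahead of C5a stimulation. Before this, cells were dye-loaded for 1 h at 37° C: calcium 5 with 2.5 mM probenecid in HBSS, 20 mM HEPES, 0.1% BSA. Cells co-express human C5aR and Gα15; read-out is FLIPR Tetra calcium flux.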
Sequence of human C5aR (P21730 whole entry): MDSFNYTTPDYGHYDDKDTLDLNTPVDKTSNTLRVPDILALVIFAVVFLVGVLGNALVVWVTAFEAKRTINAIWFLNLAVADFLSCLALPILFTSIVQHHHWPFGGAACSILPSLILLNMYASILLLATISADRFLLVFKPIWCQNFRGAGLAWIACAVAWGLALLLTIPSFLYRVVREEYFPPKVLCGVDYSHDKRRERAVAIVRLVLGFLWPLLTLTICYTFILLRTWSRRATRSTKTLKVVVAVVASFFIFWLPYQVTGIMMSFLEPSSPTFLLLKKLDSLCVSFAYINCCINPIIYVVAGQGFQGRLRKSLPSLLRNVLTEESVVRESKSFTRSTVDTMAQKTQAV
Background: A change in cytosolic calcium serves as a functional read-out for many receptors and channels.

A further assay deals with CD11b. In words: Human whole blood CD11b up-regulation assay. The conditions noted are these: Homo sapiens, 2 nM human C5a, CD15+ granulocytes, read-out: hCD11b IC50. The format is cell-based. As to the method: Whole blood was collected in sodium heparin tubes and the assay started within 2 hours of the blood draw. The blood was incubated with compounds in 1% DMSO (dimethyl sulfoxide) at room temperature for 10 minutes with gentle rocking. 2 nM of human C5a was then added for 15 minutes at room temperature with gentle rocking. Following the C5a incubation period cells were washed once with cold FACS (fluorescence-activated cell sorting) buffer (phosphate buffered saline+0.5% bovine serum albumin) FITC (fluorescein isothiocyanate) mouse anti-human CD15 and PE-Cy5 (phycoerythrin-cyanine 5) mouse anti-human CD11b antibodies (Becton Dickinson) were gently mixed with the cells and allowed to incubate for 30 minutes on ice protected from the light. Cells were then washed three times with cold FACS buffer. Red blood cells (RBC) were lysed by incubating with BD FACS lysis buffer (Becton Dickinson) for 10 minutes at room temperature. Cells were pelleted and the lysing procedure was repeated until all RBCs were lysed. The remaining leukocytes were resuspended in BD lysis buffer. Samples were acquired on the LSR^11 flow cytometer and 10,000 events of the CD15+ granulocyte population were collected. The CD11b median fluorescence intensity of the CD 15+ cell population was evaluated using FACSDiva software (Becton Dickinson).

Take `CO[C@H]1CCN(c2nc(-c3ccc(F)c4[nH]cc(C)c34)nc3c2CN(c2cc(C(C)C)ccc2C)CC3)CC1(C)C` [Example 21-AF, (S)-2-(7-fluoro-3-methyl-1H-indol-4-yl)-6-(5-isopropyl-2-methylphenyl)-4-(4-methoxy-3,3-dimethylpiperidin-1-yl)-5,6,7,8-tetrahydropyrido[4,3-d]pyrimidine]: the IC50 at human C5aR is 4 nM; in the assay on CD11b, 28 nM.

With `CO[C@@H]1CCN(c2nc(-c3c(C)cccc3C)nc3c2CN(c2cc(C(C)C)ccc2C)CC3)[C@H](C)C1` [Example 21-D, 2-(2,6-Dimethylphenyl)-6-(5-isopropyl-2-methylphenyl)-4-((2R,4R)-4-methoxy-2-methylpiperidin-1-yl)-5,6,7,8-tetrahydropyrido[4,3-d]pyrimidine], the half-maximal inhibitory concentration (IC50) came out at 0.5 nM on human C5aR and 7 nM in the assay with CD11b.

Turning to `CO[C@H]1CCN(c2nc(-c3c(C)ccc4[nH]nc(C)c34)nc3c2CN(c2cc(C(C)C)ccc2C)CC3)CC1(C)C` [Example 19-AI, (S)-2-(3,5-dimethyl-1H-indazol-4-yl)-6-(5-isopropyl-2-methylphenyl)-4-(4-methoxy-3,3-dimethylpiperidin-1-yl)-5,6,7,8-tetrahydropyrido[4,3-d]pyrimidine], the IC50 at human C5aR was found to be 2 nM; with CD11b it was 7 nM.

As for `Cc1cc(N2CCc3nc(-c4c(C)cccc4C)nc(N4CCCC(C)(C)C4)c3C2)n(C)n1` [Example 16-O, 6-(1,3-dimethyl-1H-pyrazol-5-yl)-2-(2,6-dimethylphenyl)-4-(3,3-dimethylpiperidin-1-yl)-5,6,7,8-tetrahydropyrido[4,3-d]pyrimidine], the IC50 came to 90 nM on human C5aR and 2250 nM in the assay on CD11b.

For the compound `CCO[C@@H]1CCN(c2nc(-c3c(C)ccc4[nH]nc(C)c34)nc3c2CN(c2cc(C(C)C)ccc2C)CC3)[C@H](C)C1` [Example 21-AL, 2-(3,5-dimethyl-1H-indazol-4-yl)-4-((2R,4R)-4-ethoxy-2-methylpiperidin-1-yl)-6-(5-isopropyl-2-methylphenyl)-5,6,7,8-tetrahydropyrido[4,3-d]pyrimidine], the half-maximal inhibitory concentration (IC50) at human C5aR came out at 1 nM; with CD11b, 19 nM.

Consider `CO[C@@H]1CCN(c2nc(-c3c(C)cccc3C)nc3c2CN(c2cc(C4(C)COC4)ccc2C)CC3)[C@H](C)C1` [Example 21-K, 2-(2,6-dimethylphenyl)-4-((2R,4R)-4-methoxy-2-methylpiperidin-1-yl)-6-(2-methyl-5-(3-methyloxetan-3-yl)phenyl)-5,6,7,8-tetrahydropyrido[4,3-d]pyrimidine], for which the half-inhibitory concentration (IC50) at human C5aR turned out to be 2 nM; with CD11b, 11 nM.

Take `Cc1ccc2[nH]nc(C)c2c1-c1nc2c(c(N3CC(N(C)C)C3)n1)CN(c1c(Cl)c(C3CC3)nn1C)CC2` [Example 69-J, 1-(6-(4-chloro-3-cyclopropyl-1-methyl-1H-pyrazol-5-yl)-2-(3,5-dimethyl-1H-indazol-4-yl)-5,6,7,8-tetrahydropyrido[4,3-d]pyrimidin-4-yl)-N,N-dimethylazetidin-3-amine]: the 50% inhibitory concentration (IC50) at human C5aR stood at 67 nM; with CD11b, 112 nM.

For `CO[C@H]1CCN(c2nc(-c3c(C)ccc4[nH]nc(C)c34)nc3c2CN(c2cc(C(F)(F)F)nn2C)CC3)CC1(C)C` [Example 23-K, (S)-2-(3,5-dimethyl-1H-indazol-4-yl)-4-(4-methoxy-3,3-dimethylpiperidin-1-yl)-6-(1-methyl-3-(trifluoromethyl)-1H-pyrazol-5-yl)-5,6,7,8-tetrahydropyrido[4,3-d]pyrimidine], the values for the IC50 at human C5aR and in the assay on CD11b were 64 nM and 11 nM, respectively.

As to `CO[C@H]1CCN(c2nc(-c3cccc4[nH]cc(C)c34)nc3c2CN(c2cc(C(C)C)ccc2C)CC3)CC1(C)C` [Example 17-G, (S)-6-(5-Isopropyl-2-methylphenyl)-4-(4-methoxy-3,3-dimethylpiperidin-1-yl)-2-(3-methyl-1H-indol-4-yl)-5,6,7,8-tetrahydropyrido[4,3-d]pyrimidine], the 50% inhibitory concentration (IC50) on human C5aR came to 4 nM; with CD11b, 114 nM.

As for `Cc1ccc(C(C)C)cc1N1CCc2nc(-c3cccc4[nH]cc(C)c34)nc(N3CC(O)C3)c2C1` [Example 17-AP, 1-(6-(5-isopropyl-2-methylphenyl)-2-(3-methyl-1H-indol-4-yl)-5,6,7,8-tetrahydropyrido[4,3-d]pyrimidin-4-yl)azetidin-3-ol], the IC50 on human C5aR stood at 10 nM; in the assay with CD11b it was 513 nM.

As to `[2H]C1([2H])c2c(C)cc(-c3cccc4[nH]cc(C)c34)nc2CCN1c1c(C)cccc1C` [Example 44-E, 6-(2,6-dimethylphenyl)-4-methyl-2-(3-methyl-1H-indol-4-yl)-5,6,7,8-(5,5-^2H2)tetrahydro-1,6-naphthyridine], the 50% inhibitory concentration (IC50) at human C5aR amounted to 38 nM; in the assay on CD11b, 188 nM.

For `CO[C@@H]1CCN(c2nc(-c3c(C)ccc4[nH]nc(C)c34)nc3c2CN(c2cc(C(C)C)nn2C)CC3)[C@H](C)C1` [Example 23-G, 2-(3,5-dimethyl-1H-indazol-4-yl)-6-(3-isopropyl-1-methyl-1H-pyrazol-5-yl)-4-((2R,4R)-4-methoxy-2-methylpiperidin-1-yl)-5,6,7,8-tetrahydropyrido[4,3-d]pyrimidine], the concentration for half-maximal inhibition (IC50) turned out to be 2 nM at human C5aR and 25 nM in the assay with CD11b.

Regarding `CO[C@@H]1CCN(c2nc(-c3c(C)ccc4[nH]nc(C)c34)nc3c2CN(c2cc(C(C)C)ccc2C)CC3)CC1(C)C` [Example 21-AI, (R)-2-(3,5-dimethyl-1H-indazol-4-yl)-6-(5-isopropyl-2-methylphenyl)-4-(4-methoxy-3,3-dimethylpiperidin-1-yl)-5,6,7,8-tetrahydropyrido[4,3-d]pyrimidine], the half-inhibitory concentration (IC50) was 1 nM on human C5aR and 8 nM with CD11b.

For the compound `[2H]C1([2H])c2c(C)cc(-c3c(C)ccc4[nH]ncc34)nc2CCN1c1cc(OC)ccc1C` [Example 45, 6-(5-Methoxy-2-methylphenyl)-4-methyl-2-(5-methyl-1H-indazol-4-yl)-5,6,7,8-tetrahydro(5,5-^2H2)-1,6-naphthyridine], the IC50 at human C5aR came out at 27 nM; with CD11b, 583 nM.

Take `CO[C@H]1CCN(c2nc(-c3cccc4[nH]cc(C)c34)nc3c2CN(c2cc(C(C)C)ccc2C)CC3)[C@H](C)C1` [Example 17-P, 6-(5-isopropyl-2-methylphenyl)-4-((2R,4S)-4-methoxy-2-methylpiperidin-1-yl)-2-(3-methyl-1H-indol-4-yl)-5,6,7,8-tetrahydropyrido[4,3-d]pyrimidine]: the IC50 is 13 nM on human C5aR and 70 nM in the assay on CD11b.

Consider `CCc1cccc(CC)c1-c1cc(C)c2c(n1)CCN(c1cc(C(C)C)ccc1C)C2` [Example 41-J, 2-(2,6-diethylphenyl)-6-(5-isopropyl-2-methylphenyl)-4-methyl-5,6,7,8-tetrahydro-1,6-naphthyridine], for which the 50% inhibitory concentration (IC50) came out at 22 nM on human C5aR and 302 nM in the assay on CD11b.

On to `CO[C@H]1CCN(c2nc(-c3c(C)ccc4[nH]nc(C)c34)nc3c2CN(c2c(F)c(C4CC4)nn2C)CC3)CC1(C)C` [Example 56-C, (S)-6-(3-cyclopropyl-4-fluoro-1-methyl-1H-pyrazol-5-yl)-2-(3,5-dimethyl-1H-indazol-4-yl)-4-(4-methoxy-3,3-dimethylpiperidin-1-yl)-5,6,7,8-tetrahydropyrido[4,3-d]pyrimidine], for which the 50% inhibitory concentration (IC50) at human C5aR amounted to 1 nM; in the assay on CD11b, 6 nM.
